This passage reports IC50 results from patent US9567339B2, “Primary carboxamides as BTK inhibitors” (AbbVie Inc., priority 2013, dated 2017).

Structures are written as SMILES. Where only a bound is given, the exact number is not on record here.

The target in one assay is BTK, recombinant human catalytic domain (aa 393-659) (Homo sapiens (Human), UniProt Q06187). Description: In vitro BTK kinase activity measured by time-resolved fluorescence resonance energy transfer (trFRET). The format is biochemical.
BTK, recombinant human catalytic domain (aa 393-659), sequence (Q06187 393-659): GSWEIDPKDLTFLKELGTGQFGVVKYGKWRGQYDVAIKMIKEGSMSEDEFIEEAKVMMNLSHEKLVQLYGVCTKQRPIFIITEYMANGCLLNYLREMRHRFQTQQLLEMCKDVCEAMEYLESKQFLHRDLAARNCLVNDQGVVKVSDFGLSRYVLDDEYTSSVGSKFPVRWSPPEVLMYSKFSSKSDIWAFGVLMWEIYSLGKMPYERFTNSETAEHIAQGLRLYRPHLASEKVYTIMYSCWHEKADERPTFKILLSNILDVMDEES
Details: not given
As usually defined, the IC50 is the concentration needed to halve the response being measured. In the case of `Cc1c(NC(=O)c2nccs2)cccc1-c1ccc(C(N)=O)c2[nH]cc(NC(=O)CCl)c12` [E.5.1], the IC50 was in the range of 1000 to 10000 nM.

Still in this assay, the particulars now being: read-out: Btk IC50.
With `C=CC(=O)Nc1cc(C#N)cc(-c2ccc(C(N)=O)c3[nH]ccc23)c1` [E.1.26], the IC50 lay within 100 to 1000 nM.

For the molecule `CC(=O)C(=O)NCc1cccc(-c2ccc(C(N)=O)c3[nH]ccc23)c1` [E.7.2], the IC50 fell in the range of 100 to 1000 nM.

Consider `Cc1cc2c(N(C)C3CN(C#N)C3)ccc(C(N)=O)c2[nH]1` [J.3.1], for which the IC50 was in the range of 100 to 1000 nM.

`Cc1c(NC(=O)CF)cccc1-c1ccc(C(N)=O)c2[nH]c(C3=CCN(S(C)(=O)=O)CC3)cc12` [D.7.22]: the IC50 was < 100 nM.

For `C=CC(=O)N1CC(N(C)c2ccc(C(N)=O)c3[nH]c(C4CCOC4)cc23)C1` (stereo not drawn) [E.9.21], the IC50 is < 100 nM.

Take `C=CC(=O)Nc1ccc(Cl)c(-c2ccc(C(N)=O)c3[nH]ccc23)c1` [E.1.24]: the IC50 was < 100 nM.

Take `C=CC(=O)Nc1cc(F)c(F)c(-c2ccc(C(N)=O)c3[nH]ccc23)c1` [E.1.21]: the IC50 was < 100 nM.

In the case of `Cc1c(NC(=O)C2CCOCC2)cccc1-c1ccc(C(N)=O)c2[nH]c(C3=CCN(S(C)(=O)=O)CC3)cc12` [D.7.33], the IC50 is < 100 nM.

For `Cc1c(NC(=O)CCN(C)C)cccc1-c1ccc(C(N)=O)c2[nH]c(C3=CCN(S(C)(=O)=O)CC3)cc12` [D.7.23], the IC50 was < 100 nM.

In the case of `Cc1nc(C(=O)Nc2cccc(-c3ccc(C(N)=O)c4[nH]c(C5=CCN(S(C)(=O)=O)CC5)cc34)c2C)cs1` [D.7.30], the IC50 is < 100 nM.

Regarding `C=CC(=O)N1CCOC[C@H](c2ccc(C(N)=O)c3[nH]ccc23)C1` [E.9.39], the IC50 lay in the range of 1000 to 10000 nM.

Take `Cc1c(NC(=O)COc2ccc(F)cc2)cccc1-c1ccc(C(N)=O)c2[nH]c(C3=CCN(S(C)(=O)=O)CC3)cc12` [D.7.11]: the IC50 was < 100 nM.

For `Cc1c(NC(=O)CCN2CCCC2)cccc1-c1ccc(C(N)=O)c2[nH]c(C3=CCN(S(C)(=O)=O)CC3)cc12` [D.7.12], the IC50 is < 100 nM.

With `CCOC(=O)/C=C/C(=O)Nc1cccc(-c2ccc(C(N)=O)c3[nH]c(C4=CCN(S(C)(=O)=O)CC4)cc23)c1C` [D.7.20], the IC50 is < 100 nM.

Turning to `Cn1cc(-c2cc3c(N4CCC[C@@H](NC(=O)c5ccc(C(F)(F)F)cc5)C4)ccc(C(N)=O)c3[nH]2)cn1` [O.1.21*], the IC50 lay within 100 to 1000 nM.

In the case of `NC(=O)c1ccc(N2CCC[C@@H](NC(=O)c3ccc(C(F)(F)F)cc3)C2)c2cc[nH]c12` [O.1.8*], the IC50 lay in the range of 1000 to 10000 nM.

With `C=CC(=O)N1CC[C@H](c2ccc(C(N)=O)c3[nH]c(-c4cnn(C)c4)cc23)C1` [E.9.48], the concentration for half-maximal inhibition (IC50) was < 100 nM.

Regarding `C=CC(=O)N1CCC[C@@H](c2ncc(C(N)=O)c3[nH]ccc23)C1` [E.9.32], the IC50 was < 100 nM.

On to `Cn1cc(-c2cc3c(N4CCC[C@@H](NC(=O)c5ccc(C(C)(C)C(N)=O)cc5)C4)ccc(C(N)=O)c3[nH]2)cn1` [O.1.23*], for which the IC50 was 100 to 1000 nM.

With `CC(=O)C(=O)Nc1cccc(-c2ccc(C(N)=O)c3[nH]ccc23)c1` [E.7.1], the IC50 lay within 100 to 1000 nM.

On to `C=CC(=O)N1CCO[C@@H](c2ccc(C(N)=O)c3[nH]c(-c4cnn(C)c4)cc23)C1` [E.9.24], for which the IC50 was < 100 nM.

For the molecule `C=CC(=O)N1C[C@H](CO)C[C@H](c2ccc(C(N)=O)c3[nH]ccc23)C1` [E.9.47], the IC50 lay in the range of 100 to 1000 nM.

With `C=C(C)C(=O)Nc1cccc(-c2ccc(C(N)=O)c3[nH]c(C4=CCN(S(C)(=O)=O)CC4)cc23)c1C` [D.7.5], the half-inhibitory concentration (IC50) was < 100 nM.

For `C=CC(=O)Nc1cc(OCc2nccs2)ccc1-c1ccc(C(N)=O)c2[nH]ccc12` [E.1.16], the IC50 lay within 1000 to 10000 nM.

Regarding `Cc1ccc(-c2cc3c(Cc4c(Cl)cccc4Cl)ccc(C(N)=O)c3[nH]2)cc1` [U.1.1], the IC50 lay in the range of 1000 to 10000 nM.

On to `C=CC(=O)N1CCC[C@H](c2cnc(C(N)=O)c3sc(-c4cnn(C)c4)nc23)C1` [E.9.36], for which the IC50 is < 100 nM.

Turning to `C/C=C/C(=O)Nc1cccc(-c2ccc(C(N)=O)c3[nH]c(C4=CCN(S(C)(=O)=O)CC4)cc23)c1C` [D.7.9], the IC50 is < 100 nM.

With `C=CC(=O)N1CCC[C@@H](c2ccc(C(N)=O)c3[nH]c(C)cc23)C1` [E.9.7], the IC50 is < 100 nM.

For `NC(=O)c1ccc(N2CCCC(n3cnc4cc(C5CC5)cc(F)c4c3=O)C2)c2cc[nH]c12` (stereo not drawn) [O.1.13], the IC50 was in the range of 1000 to 10000 nM.

Regarding `Cc1c(NC(=O)C2CCN(C)CC2)cccc1-c1ccc(C(N)=O)c2[nH]c(C3=CCN(S(C)(=O)=O)CC3)cc12` [D.7.36], the IC50 was < 100 nM.

With `C=CC(=O)N1CC(N(C)c2ccc(C(N)=O)c3[nH]c(-c4ccc(N5CCOCC5)nc4)cc23)C1` [E.9.10], the half-maximal inhibitory concentration (IC50) was < 100 nM.

Still in this assay, the particulars now being: trFRET, 0.001 mM ATP, biotin-TYR1 peptide substrate; read-out: Btk IC50.
For `C=CC(=O)Nc1cccc(-c2ccc(C(N)=O)c3[nH]c(-c4cccc(N(C)C)c4)cc23)c1C` [A.1.27], the IC50 is < 100 nM.

Turning to `Cc1c(-c2ccc(C(N)=O)c3[nH]c(-c4cnn(C)c4)cc23)cccc1-n1cnc2ccccc2c1=O` [A.10.1], the IC50 was < 100 nM.

Turning to `Cc1ccc(NC(=O)c2nccs2)cc1-c1ccc(C(N)=O)c2[nH]c(-c3cccnc3)cc12` [A.7.7], the IC50 fell in the range of 1000 to 10000 nM.

Regarding `C=CC(=O)Nc1cccc(-c2ccc(C(N)=O)c3[nH]c(-c4ccccc4OC)cc23)c1C` [A.1.43], the IC50 was < 100 nM.

Take `Cc1c(NC(=O)c2nccs2)cccc1-c1ccc(C(N)=O)c2[nH]cc(NC(=O)CC#N)c12` [D.3.1]: the IC50 fell in the range of 1000 to 10000 nM.

With `Cc1c(NC(=O)c2nccs2)cccc1-c1ccc(C(N)=O)c2[nH]c(-c3ccccc3CNC(=O)CCN(C)C)cc12` [D.1.4], the IC50 was in the range of 100 to 1000 nM.

In the case of `CC(=O)c1ccc(-c2ccc(C(N)=O)c3[nH]c(-c4ccc(C)cc4)cc23)s1` [A.8.5], the IC50 is 100 to 1000 nM.

Turning to `CCOC(=O)/C=C/C(=O)Nc1cccc(-c2ccc(C(N)=O)c3[nH]ccc23)c1C` [D.8.1], the IC50 was < 100 nM.

Consider `Cc1c(-c2ccc(C(N)=O)c3[nH]c(-c4cccnc4)cc23)cccc1N1Cc2ccc(F)cc2C1=O` [A.7.6], for which the IC50 is < 100 nM.

In the case of `C=CC(=O)Nc1cccc(-c2ccc(C(N)=O)c3[nH]c(-c4ccc(C(N)=O)cc4)cc23)c1C` [A.1.45], the IC50 was < 100 nM.

On to `Cc1c(-c2ccc(C(N)=O)c3[nH]c(-c4cnn(C)c4)cc23)cccc1-n1cnc2ccc(F)cc2c1=O` [A.10.2], for which the IC50 is < 100 nM.

As for `C=CC(=O)Nc1c[nH]c2c(C(N)=O)ccc(-c3cccc(NC(=O)c4nccs4)c3C)c12` [D.3.2], the concentration for half-maximal inhibition (IC50) was 1000 to 10000 nM.

Regarding `C=CC(=O)Nc1cccc(-c2ccc(C(N)=O)c3[nH]c(-c4cnn(CC)c4)cc23)c1C` [A.1.6], the IC50 was < 100 nM.

In the case of `C=C(C)C(=O)Nc1c[nH]c2c(C(N)=O)ccc(-c3cccc(NC(=O)c4nccs4)c3C)c12` [D.3.4], the IC50 was in the range of 1000 to 10000 nM.

`CS(=O)(=O)N1CC=C(c2cc3c(-c4cccc(OCc5nccs5)c4)ccc(C(N)=O)c3[nH]2)CC1` [A.4.4]: the IC50 is < 100 nM.

For the molecule `C#CC(=O)N1CC(N(C)c2ccc(C(N)=O)c3[nH]c(C)cc23)C1` [D.10.1], the IC50 was < 100 nM.

`C=CC(=O)Nc1cccc(-c2ccc(C(N)=O)c3[nH]c(-c4ccc(C(=O)N5CCN(C)CC5)cc4)cc23)c1C` [A.1.39]: the IC50 is < 100 nM.

For `C=CC(=O)Nc1cccc(-c2ccc(C(N)=O)c3[nH]c(-c4cnn(CC(C)C)c4)cc23)c1C` [A.1.7], the IC50 was < 100 nM.

Consider `Cc1c(N)cccc1-c1ccc(C(N)=O)c2[nH]ccc12` [Example 16, 4-(3-Amino-2-methylphenyl)-1H-indole-7-carboxamide], for which the IC50 lay within 1000 to 10000 nM.

For the molecule `NC(=O)c1ccc(-c2cncc(N)c2)c2cc[nH]c12` [A.5.4, 4-(5-aminopyridin-3-yl)-1H-indole-7-carboxamide], the IC50 fell in the range of 1000 to 10000 nM.

For `Cc1c(NC(=O)CCN2CCOCC2)cccc1-c1ccc(C(N)=O)c2[nH]ccc12` [D.8.13], the IC50 lay within 1000 to 10000 nM.

Turning to `C=CC(=O)Nc1cccc(-c2ccc(C(N)=O)c3[nH]c(-c4ccccc4)cc23)c1C` [A.1.33], the IC50 is < 100 nM.

Regarding `Cc1ccc(-c2cc3c(-c4cnn(C)c4)ccc(C(N)=O)c3[nH]2)cc1` [A.8.7], the IC50 fell in the range of 100 to 1000 nM.

As for `CS(=O)(=O)N1CC=C(c2cc3c(-c4ccccc4N)ccc(C(N)=O)c3[nH]2)CC1` [A.4.2, 4-(2-aminophenyl)-2-(1-(methylsulfonyl)-1,2,3,6-tetrahydropyridin-4-yl)-1H-indole-7-carboxamide], the IC50 was < 100 nM.

As for `CS(=O)(=O)N1CC=C(c2cc3c(N4CCC[C@@H](N5CCc6ccccc6C5=O)C4)ccc(C(N)=O)c3[nH]2)CC1` [Example 13, (R)-2-(1-(Methylsulfonyl)-1,2,3,6-tetrahydropyridin-4-yl)-4-(3-(1-oxo-3,4-dihydroisoquinolin-2(1H)-yl)piperidin-1-yl)-1H-indole-7-carboxamide], the IC50 is < 100 nM.

For `C=CC(=O)Nc1cccc(-c2ccc(C(N)=O)c3[nH]c(-c4c(C)noc4C)cc23)c1C` [A.1.1], the IC50 was in the range of 100 to 1000 nM.

For `C=CC(=O)Nc1cccc(-c2ccc(C(N)=O)c3[nH]c(-c4ccc(F)nc4)cc23)c1C` [A.1.16], the concentration for half-maximal inhibition (IC50) was < 100 nM.

For the molecule `CN1CCC=C(C(=O)Nc2cccc(-c3ccc(C(N)=O)c4[nH]ccc34)c2)C1` [E.2.2], the IC50 lay within 1000 to 10000 nM.

Regarding `Cc1c(NC(=O)c2nccs2)cccc1-c1ccc(C(N)=O)c2[nH]cc(NC(=O)COc3ccc(F)cc3)c12` [D.3.6], the IC50 fell in the range of 1000 to 10000 nM.

As to `C=CS(=O)(=O)Nc1cccc(-c2ccc(C(N)=O)c3[nH]ccc23)c1` [I.1, 4-(3-(Vinylsulfonamido)phenyl)-1H-indole-7-carboxamide], the IC50 was < 100 nM.

With `CS(=O)(=O)N1CC=C(c2cc3c(-c4ccccc4)ccc(C(N)=O)c3[nH]2)CC1` [A.4.7], the IC50 was < 100 nM.

For `Cc1c(NC(=O)c2nccs2)cccc1-c1ccc(C(N)=O)c2[nH]c(-c3ccccc3CNC(=O)CCN3CCCCC3)cc12` [D.1.5], the IC50 lay within 1000 to 10000 nM.

Take `Cc1c(-c2ccc(C(N)=O)c3[nH]c(-c4cnn(CC(C)(C)O)c4)cc23)cccc1-n1cnc2ccc(F)cc2c1=O` [A.14.1]: the IC50 is < 100 nM.

With `Cc1oncc1C(=O)Nc1cccc(-c2ccc(C(N)=O)c3[nH]ccc23)c1` [E.2.1, N-(3-(7-carbamoyl-1H-indol-4-yl)phenyl)-5-methylisoxazole-4-carboxamide], the IC50 lay within 1000 to 10000 nM.
